In PMC7366314 (ACS chemical biology, 2020):

Key:
[1] = Ex vivo mouse plasma stability testing; type: in vitro ADME; details: for plasma half-life, fold greater than the natural GLP-1 peptide: ex vivo mouse plasma, 10 μM, 37°C, LC/MS/MS
proteinase K = proteinase K (Parengyodontium album, UniProt P06873); assay: Peptide proteolysis assay with proteinase K, intact peptide by LC/MS; details: 50 mM Tris HCl pH 7.4, LC/MS
Leprdb mice = assay: Anti-hyperglycemic effect in diabetic Leprdb; type: in vivo, mouse; details: single IP injection 10 nmol/kg
B6 mice = assay: Glucose tolerance test; type: in vivo, mouse; details: B6 mice fasted overnight, 10 nmol/kg IP, glucose 2 g/kg IP 30 min later

Sequence of proteinase K (P06873 106-384): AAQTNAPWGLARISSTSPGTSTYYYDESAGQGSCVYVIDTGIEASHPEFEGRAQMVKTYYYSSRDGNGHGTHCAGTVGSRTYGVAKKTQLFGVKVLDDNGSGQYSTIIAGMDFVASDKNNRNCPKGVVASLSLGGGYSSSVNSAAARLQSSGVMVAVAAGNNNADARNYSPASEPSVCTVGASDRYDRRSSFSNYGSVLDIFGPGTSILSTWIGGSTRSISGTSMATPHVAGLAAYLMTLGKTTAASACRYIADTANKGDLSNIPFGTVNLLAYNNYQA

| SMILES | plasma half-life, fold greater than the natural GLP-1 peptide [1] [fold] | fold improvement of proteinase K half-life compared to control (wild-type) GLP-1 (proteinase K) | half-life at 10 µM ([1]; mouse, plasma (freshly drawn, lithium heparin)) [h] | initial reduction in serum glucose (Leprdb mice; 15 min p=0.0032, 30 min p=0.0001 vs semaglutide) | fold reduction in glucose level compared to vehicle and wild-type GLP-1 (Leprdb mice; sustained for 12 hours, n=8) | time to euglycemia after the glucose bolus (GTT) (B6 mice) [min] |
| --- | --- | --- | --- | --- | --- | --- |
| CC[C@H](C)[C@H](NC(=O)[C@H](Cc1ccccc1)NC(=O)[C@H](CCC(=O)O)NC(=O)[C@H](CCCCNC(=O)COCCOCCNC(=O)COCCOCCNC(=O)CC[C@H](NC(=O)CCCCCCCCCCCCCCCCC(=O)O)C(=O)O)NC(=O)[C@H](C)NC(=O)[C@H](C)NC(=O)[C@H](CCC(N)=O)NC(=O)CNC(=O)[C@H](CCC(=O)O)NC(=O)[C@H](CC(C)C)NC(=O)[C@H](Cc1ccc(O)cc1)NC(=O)[C@H](CO)NC(=O)[C@H](CO)NC(=O)[C@@H](NC(=O)[C@H](CC(=O)O)NC(=O)[C@H](CO)NC(=O)[C@@H](NC(=O)[C@H](Cc1ccccc1)NC(=O)[C@@H](NC(=O)CNC(=O)[C@H](CCC(=O)O)NC(=O)C(C)(C)NC(=O)[C@@H](N)Cc1cnc[nH]1)[C@@H](C)O)[C@@H](C)O)C(C)C)C(=O)N[C@@H](C)C(=O)N[C@@H](Cc1c[nH]c2ccccc12)C(=O)N[C@@H](CC(C)C)C(=O)N[C@H](C(=O)N[C@@H](CCCNC(=N)N)C(=O)NCC(=O)N[C@@H](CCCNC(=N)N)C(=O)NCC(=O)O)C(C)C [semaglutide, reference compound] | 12 |  |  |  |  |  |
| CC[C@H](C)[C@@H]1NC(=O)[C@H](Cc2ccccc2)NC(=O)[C@H](CCC(=O)O)NC(=O)[C@H](CCCCN)NC(=O)[C@H](C)NC(=O)[C@H](C)NC(=O)[C@@]2(CCCC=CCCCCCC[C@@](C)(NC(=O)[C@H](CC(=O)O)NC(=O)[C@H](CO)NC(=O)[C@@H](NC(=O)[C@H](Cc3ccccc3)NC(=O)[C@@H](NC(=O)CNC(=O)[C@H](CCC(=O)O)NC(=O)C(C)(C)NC(=O)[C@@H](N)Cc3c[nH]cn3)[C@@H](C)O)[C@@H](C)O)C(=O)N[C@@H](CO)C(=O)N[C@@H](CO)C(=O)N[C@@H](Cc3ccc(O)cc3)C(=O)N[C@@H](CC(C)C)C(=O)N[C@@H](CCC(=O)O)C(=O)NCC(=O)N2)CCCC=CCCCCCC[C@@](C)(C(=O)N[C@@H](Cc2c[nH]c3ccccc23)C(=O)N[C@@H](CC(C)C)C(=O)N[C@H](C(=O)N[C@@H](CCCCN)C(=O)NCC(=O)N[C@@H](CCCNC(=N)N)C(N)=O)C(C)C)NC1=O [SAH-GLP-1-A8J(16,23,30)] | 23 | over 24 fold | 5.33 | more rapid, initial reduction in serum glucose compared to semaglutide | 2–2.5 fold | ≤ 60 |
